Experiments:
human DSM cells = experiment: Resting membrane potential (RMP) of DSM cells, current-clamp; assay type: cell-based
Protocol: (§1) Patch-clamp electrophysiological experiments: Patch-clamp experiments were performed as previously described. (Hristov K L, Chen M, Kellett W F, Rovner E S, and Petkov G V. Large-conductance voltage- and Ca2+-activated K+ channels regulate human detrusor smooth muscle function. Am J Physiol Cell Physiol 301: C903-912, 2011; Hristov K L, Parajuli S P, Soder R P, Cheng Q, Rovner E S, and Petkov G V. Suppression of human detrusor smooth muscle excitability and contractility via pharmacological activation of large conductance Ca2+-activated K+ channels. Am J Physiol Cell Physiol 302: C1632-1641, 2012; Malysz J, Rovner E S, and Petkov G V. Single-channel biophysical and pharmacological characterizations of native human large-conductance calcium-activated potassium channels in freshly isolated detrusor smooth muscle cells. Pflugers Arch 465: 965-975, 2013; Parajuli S P, Hristov K L, Cheng Q P, Malysz J, Rovner E S, and Petkov G V. Functional link between muscarinic receptors and large-conductance Ca2+-activated K+ channels in freshly isolated human detrusor smooth muscle cells. Pflugers Arch 467: 665-675, 2015.)
The current disclosure applied the amphotericin B-perforated whole cell patch-clamp technique to record transient BK currents (TBKCs), depolarization-induced steady-state whole cell BK currents, and the resting membrane potential (RMP) of human freshly-isolated DSM cells. TBKCs in DSM cells were recorded at the holding potential of −20 mV. Depolarization-induced steady-state whole cell BK currents were elicited by holding the DSM cells at −70 mV and then brief, 200 ms depolarization steps were applied from −40 mV to +80 mV in increments of 20 mV. Single BK channel activity was recorded from inside-out excised membrane patches using symmetrical K^+ (140 mM) solutions, at a holding potential of −60 mV (Vh=−60 mV). The electrochemical driving force for K^+ in these experimental conditions was +60 mV (VDV=60 mV). Paxilline (1 μM), a selective BK channel inhibitor was used to dissect their functional role in mediating 17β-estradiol induced effects on DSM function. All patch-clamp experiments were conducted at room temperature (22-23° C.).
(§2) Solutions and drugs: Ca^2+-free dissection solution contained (in mM): 80 monosodium glutamate, 55 NaCl, 6 KCl, 10 glucose, 10 HEPES,2 MgCl2, and the pH was adjusted to 7.3 with NaOH. […] Extracellular and patch-pipette solutions for single BK channel recordings contained (in mM): 140 KCl, 1.08 MgCl2, 5 EGTA, 10 HEPES, and 3.16 CaCl2, adjusted to pH 7.2 with NaOH (Ca^2+ free concentration was calculated ˜300 nM with WEBMAXC Standard, http://www.stanford.edu/˜cpatton/webmaxcS.htm, Chris Patton). […]

BK channels [1] = biological target: T1, BK channels (Homo sapiens, UniProt Q12791+Q16558); experiment: Depolarization-induced steady-state whole cell outward BK currents, amphotericin B-perforated patch-clamp, freshly-isolated DSM cells; assay type: cell-based
T1 construct: Human single DSM cells were enzymatically isolated as previously described; endogenous in cells; host or cells: freshly-isolated human detrusor smooth muscle (DSM) cells from open bladder surgery specimens
T1 sequence (Q12791 whole entry): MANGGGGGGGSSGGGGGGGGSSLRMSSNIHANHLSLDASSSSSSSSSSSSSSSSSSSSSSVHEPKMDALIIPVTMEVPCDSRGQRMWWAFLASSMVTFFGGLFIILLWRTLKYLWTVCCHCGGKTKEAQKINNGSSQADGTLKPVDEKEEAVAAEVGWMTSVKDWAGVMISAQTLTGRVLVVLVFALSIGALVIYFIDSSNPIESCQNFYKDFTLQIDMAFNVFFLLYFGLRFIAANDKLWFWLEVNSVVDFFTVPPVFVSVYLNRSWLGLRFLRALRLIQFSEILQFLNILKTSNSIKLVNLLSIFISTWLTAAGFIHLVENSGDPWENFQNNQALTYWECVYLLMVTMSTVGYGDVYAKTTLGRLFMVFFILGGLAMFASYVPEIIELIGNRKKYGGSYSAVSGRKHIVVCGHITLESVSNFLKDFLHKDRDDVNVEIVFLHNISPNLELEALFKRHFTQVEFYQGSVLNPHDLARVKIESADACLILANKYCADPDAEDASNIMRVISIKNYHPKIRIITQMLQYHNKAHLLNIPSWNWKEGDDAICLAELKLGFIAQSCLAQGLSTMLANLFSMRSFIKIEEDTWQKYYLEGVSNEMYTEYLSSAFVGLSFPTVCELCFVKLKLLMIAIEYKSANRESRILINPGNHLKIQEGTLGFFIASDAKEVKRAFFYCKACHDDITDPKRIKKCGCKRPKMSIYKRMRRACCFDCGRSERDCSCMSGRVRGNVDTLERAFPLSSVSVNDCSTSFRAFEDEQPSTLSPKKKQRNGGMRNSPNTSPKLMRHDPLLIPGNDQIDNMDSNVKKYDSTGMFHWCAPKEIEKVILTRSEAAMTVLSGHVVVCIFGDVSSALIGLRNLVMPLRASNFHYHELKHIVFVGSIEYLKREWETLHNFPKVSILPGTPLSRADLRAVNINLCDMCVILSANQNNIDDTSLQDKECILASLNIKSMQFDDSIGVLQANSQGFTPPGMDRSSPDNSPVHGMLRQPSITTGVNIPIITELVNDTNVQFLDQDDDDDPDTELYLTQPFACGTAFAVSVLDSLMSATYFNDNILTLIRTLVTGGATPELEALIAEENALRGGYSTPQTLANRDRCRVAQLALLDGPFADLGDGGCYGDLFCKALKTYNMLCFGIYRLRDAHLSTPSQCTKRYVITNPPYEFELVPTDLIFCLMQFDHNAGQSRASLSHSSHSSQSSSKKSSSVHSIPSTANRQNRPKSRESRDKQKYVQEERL
T1 sequence (Q16558 whole entry): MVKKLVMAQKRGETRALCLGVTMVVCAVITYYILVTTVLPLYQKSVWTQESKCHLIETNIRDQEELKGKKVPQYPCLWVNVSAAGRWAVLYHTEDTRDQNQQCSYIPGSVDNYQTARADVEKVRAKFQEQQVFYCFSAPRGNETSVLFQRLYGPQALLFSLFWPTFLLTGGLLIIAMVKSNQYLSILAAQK
Source text: as §1, with “DSM single cell isolation: Human single DSM cells” for “Patch-clamp electrophysiological experiments: Patch-clamp experiments”, “enzymatically isolated” for “performed”, “2012;” for “2012; Malysz J, Rovner E S, and Petkov G V. Single-channel biophysical and pharmacological characterizations of native human large-conductance calcium-activated potassium channels in freshly isolated detrusor smooth muscle cells. Pflugers Arch 465: 965-975, 2013;”
(§3) Patch-clamp electrophysiological experiments: Patch-clamp experiments were performed as previously described. […]
(§4) The current disclosure applied the amphotericin B-perforated whole cell patch-clamp technique to record transient BK currents (TBKCs), depolarization-induced steady-state whole cell BK currents, and the resting membrane potential (RMP) of human freshly-isolated DSM cells. TBKCs in DSM cells were recorded at the holding potential of −20 mV. […] Single BK channel activity was recorded from inside-out excised membrane patches using symmetrical K^+ (140 mM) solutions, at a holding potential of −60 mV (Vh=−60 mV). […]

BK channels [2] = biological target: T1, BK channels; experiment: Transient BK currents (TBKCs), perforated whole cell patch-clamp, freshly-isolated DSM cells; assay type: cell-based; conditions: 17β-estradiol 100 nM, holding potential −20 mV
Source text: as §1, with “DSM single cell isolation: Human single DSM cells” for “Patch-clamp electrophysiological experiments: Patch-clamp experiments”, “enzymatically isolated” for “performed”, “2012;” for “2012; Malysz J, Rovner E S, and Petkov G V. Single-channel biophysical and pharmacological characterizations of native human large-conductance calcium-activated potassium channels in freshly isolated detrusor smooth muscle cells. Pflugers Arch 465: 965-975, 2013;”, “2015.) […]” for “2015.)”
as §4

BK channels [3] = biological target: T1, BK channels; experiment: Single BK channel recordings, inside-out excised membrane patches of DSM cells; assay type: biochemical; conditions: 17β-estradiol 100 nM, n=9, N=7
Protocol: as §3, §4, §2

[4] = tested on: human DSM isolated strips; experiment: Isometric tension recordings: spontaneous phasic contractions of DSM isolated strips; assay type: cell-based
Protocol: Human DSM specimen collection: The study forming the basis for the current disclosure was conducted according to protocol Pro00045232, reviewed and approved by the Medical University of South Carolina Institutional Review Board. […] The DSM tissue samples were obtained during open bladder surgeries performed for a variety of indications such as bladder cancer, including radical cystectomy for urothelial carcinoma, and adenocarcinoma. In such cases, the collected DSM tissue was remote from the site of tumor. DSM strips were dissected from the bladder specimens, and after removing the urothelial and lamina propria layers, the strips were used for single DSM cell isolation and isometric DSM tension recordings.
(§5) Isometric DSM tension recordings: Isometric DSM tension recordings of human DSM isolated strips (˜7-8 mm long and ˜4-5 mm wide) were conducted as previously described (Hristov K L, Chen M, Kellett W F, Rovner E S, and Petkov G V. Large-conductance voltage- and Ca2+-activated K+ channels regulate human detrusor smooth muscle function. Am J Physiol Cell Physiol 301: C903-912, 2011; Hristov K L, Parajuli S P, Soder R P, Cheng Q, Rovner E S, and Petkov G V. Suppression of human detrusor smooth muscle excitability and contractility via pharmacological activation of large conductance Ca2+-activated K+ channels. Am J Physiol Cell Physiol 302: C1632-1641, 2012).
Solutions and drugs: Ca^2+-free dissection solution contained (in mM): 80 monosodium glutamate, 55 NaCl, 6 KCl, 10 glucose, 10 HEPES,2 MgCl2, and the pH was adjusted to 7.3 with NaOH. For the functional studies on human DSM contractility, the physiological saline solution had the following composition (in mM): 119 NaCl, 4.7 KCl, 24 NaHCO3, 1.2 KH2PO4, 2.5 CaCl2, 1.2 MgSO4, and 11 D-glucose, aerated with 95% O2-5% CO2 (pH 7.4). Extracellular (bath) solution used for the perforated whole cell patch-clamp experiments contained (in mM): 134 NaCl, 6 KCl, 1 MgCl2, 2 CaCl2, 10 glucose, 10 HEPES, and pH was adjusted to 7.4 with NaOH. The patch-pipette solution for the perforated patch-clamp experiments contained (in mM): 110 potassium aspartate, 30 KCl, 10 NaCl, 1 MgCl2, 10 HEPES, 0.05 EGTA, and pH was adjusted to 7.2 with NaOH. Amphotericin-B stock solution was prepared daily in dimethyl sulfoxide (DMSO) and was added to the pipette solution (200 μg/ml) before the experiment and was replaced every 1-2 h. Extracellular and patch-pipette solutions for single BK channel recordings contained (in mM): 140 KCl, 1.08 MgCl2, 5 EGTA, 10 HEPES, and 3.16 CaCl2, adjusted to pH 7.2 with NaOH (Ca^2+ free concentration was calculated ˜300 nM with WEBMAXC Standard, http://www.stanford.edu/˜cpatton/webmaxcS.htm, Chris Patton). […]
Data analysis and statistics: Clampfit 10.3 (Molecular Device, Union City, Calif.) and Minianalysis software (Synaptosoft, Inc., NJ) were used to analyze the data. Mean values of the last 50 ms pulse of 200 ms depolarization step of at least 5 average files in the absence (control) and in the presence of 17β-estradiol were analyzed to evaluate the effects of 17β-estradiol on steady-state whole cell BK currents. […] Five minutes of at least an 8-10 min stable patch-clamp recording prior to application of 17β-estradiol were analyzed for control data, and the last 5 min of continuous recordings of 10-15 min after application of 17β-estradiol were analyzed to evaluate the effects of 17β-estradiol on RMP or TBKCs. […]

[5] = tested on: human DSM isolated strips; experiment: Isometric tension recordings: nerve-evoked (EFS-induced) contractions of DSM isolated strips; assay type: cell-based; conditions: 17β-estradiol 100 nM; in particular at lower stimulation frequencies (0.5-20.0 Hz); n=7, N=3; P<0.05
Protocol: as §5, §2

rat DSM isolated strips = conditions: 17β-estradiol 30 μM; cited from earlier work
pig DSM isolated strips = conditions: 17β-estradiol 30 μM; cited from earlier work
[6] = 17β-estradiol 100 nM-1 μM, strips pre-incubated with paxilline (1 μM), n=5, N=5, P>0.05
[7] = 17β-estradiol 1 μM, n=8, N=5, P<0.05

Row | SMILES | DSM cell RMP (human DSM cells; paxilline only (1 μM), n=8, N=5) | effect on whole cell K+ current density (BK channels [1]; 17β-estradiol 100 nM, n=12, N=8, P<0.05) | whole cell outward K+ currents (BK channels [1]; at +80 mV, 17β-estradiol 100 nM, control 33.9±6.5 pA/pF, n=12, N=8, P<0.05) | BK current amplitude (BK channels [1]; at +80 mV, both paxilline (1 μM) and 17β-estradiol (100 nM), vs 6.1±1.7 paxilline alone, P>0.05) | effect on average TBKC amplitude (BK channels [2]) | increase of the frequency of TBKCs (BK channels [2]; control taken as 100%, n=8, N=5, P<0.05) | single BK channel open probability (NPo) (BK channels [3]; Vh=−60 mV, control 0.086±0.030, P<0.05) | single BK channel current amplitude (BK channels [3]; control 11.7±0.7 pA, P>0.05) | DSM cell RMP (human DSM cells; 17β-estradiol 100 nM, control −25.7±3.2 mV, n=11, N=9, P<0.05) | hyperpolarization of the DSM cell RMP (human DSM cells; 17β-estradiol 100 nM, n=11, N=9, P<0.05) | DSM cell RMP (human DSM cells; 17β-estradiol in the presence of paxilline (1 μM), n=8, N=5, P>0.05) | effect on muscle force integral [4, 6] | effect on spontaneous phasic contraction amplitude [4, 6] | decrease of muscle force integral [4, 7] | decrease of spontaneous phasic contraction amplitude [4, 7] | effect on phasic contraction frequency ([4]; 17β-estradiol 1 μM, n=8, N=5, P>0.05) | effect on EFS-induced contractions [5] | effect on pharmacologically-induced and nerve-evoked contractions (rat DSM isolated strips) | effect on KCl- and muscarinic receptor-induced contractions (pig DSM isolated strips)
1 | CC(C)(O)[C@H]1O[C@H]2CC[C@@]3(C)[C@@](O)(CC[C@H]4Cc5c([nH]c6ccccc56)[C@@]43C)C2=CC1=O [paxilline] | −22.1±4.7 mV |  |  |  |  |  |  |  |  |  |  |  |  |  |  |  |  |  | 
2 | C[C@]12CC[C@@H]3c4ccc(O)cc4CC[C@H]3[C@@H]1CC[C@@H]2O [17β-estradiol] |  | significantly increased | 44.5±7.8 pA/pF | 6.8±1.8 pA/pF | without significantly altering | 74.6±37.8% | 0.137±0.030 | 11.9±0.5 pA | −28.9±3.3 mV | ~3 mV | −21.9±4.4 mV | did not affect | did not affect | 44.4±13.2% | 53.3±8.9% | without significantly changing | significantly inhibited | decrease | inhibitory effects

— patent publication US20170348322A1, “BK Channels as Non-Genomic Estrogen Targets for Overactive Bladder” (priority 2016, published 2017)
